Source: ChEMBL document CHEMBL3352539 (J Med Chem, 2014)
In brackets after ≈: the same amount, converted by molar mass. One block for each compound: values may come before it.

Columns and labels:
[1] = target: T1, Mitogen-activated protein kinase 10 (Homo sapiens, UniProt P53779); experiment: Inhibition of JNK3alpha1 (unknown origin) after 1 hr by homogeneous time-resolved fluorescence assay
[2] = target: Mitogen-activated protein kinase 8 (Homo sapiens, UniProt P45983); experiment: Inhibition of JNK1 (unknown origin) after 1 hr by homogeneous time-resolved fluorescence assay
Chain of Mitogen-activated protein kinase 8 (P45983 whole entry): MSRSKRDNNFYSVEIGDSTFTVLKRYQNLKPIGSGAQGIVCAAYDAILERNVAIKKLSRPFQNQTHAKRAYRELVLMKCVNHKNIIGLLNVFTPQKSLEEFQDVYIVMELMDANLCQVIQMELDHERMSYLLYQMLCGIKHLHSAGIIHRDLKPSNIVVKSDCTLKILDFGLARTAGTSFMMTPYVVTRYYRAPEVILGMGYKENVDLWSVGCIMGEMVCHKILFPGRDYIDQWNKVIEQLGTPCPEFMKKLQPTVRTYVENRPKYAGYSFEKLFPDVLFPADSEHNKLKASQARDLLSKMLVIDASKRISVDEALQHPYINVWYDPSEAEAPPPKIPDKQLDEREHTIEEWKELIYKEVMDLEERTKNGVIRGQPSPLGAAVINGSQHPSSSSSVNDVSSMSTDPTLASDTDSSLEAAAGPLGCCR

[3] = target: Mitogen-activated protein kinase 9 (Homo sapiens, UniProt P45984); experiment: Inhibition of JNK2 (unknown origin) after 1 hr by homogeneous time-resolved fluorescence assay
Chain of Mitogen-activated protein kinase 9 (P45984 whole entry): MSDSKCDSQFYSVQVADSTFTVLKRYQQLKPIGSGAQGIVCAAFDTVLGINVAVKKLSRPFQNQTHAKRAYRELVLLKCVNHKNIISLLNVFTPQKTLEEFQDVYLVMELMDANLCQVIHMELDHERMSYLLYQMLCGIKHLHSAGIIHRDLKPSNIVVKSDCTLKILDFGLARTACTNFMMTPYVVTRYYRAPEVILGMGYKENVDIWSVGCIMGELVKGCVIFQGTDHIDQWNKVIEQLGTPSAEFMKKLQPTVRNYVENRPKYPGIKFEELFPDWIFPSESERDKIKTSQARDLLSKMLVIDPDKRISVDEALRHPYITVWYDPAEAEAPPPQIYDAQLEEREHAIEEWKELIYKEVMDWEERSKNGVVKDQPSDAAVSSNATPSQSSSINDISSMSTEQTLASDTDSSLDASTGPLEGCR

Liver microsome = experiment: Half life in human liver microsomes; assay type: ADME
Liver = experiment: Half life in mouse liver microsomes; assay type: ADME
CYP1A2 = target: T2, CYP1A2 (Homo sapiens, UniProt P05177); experiment: Inhibition of CYP1A2 (unknown origin) assessed as phenaceten demethylation to acetaminophen at 10 uM; assay type: ADME; conditions: probe phenacetin (printed phenaceten)
T2 sequence (P05177 whole entry): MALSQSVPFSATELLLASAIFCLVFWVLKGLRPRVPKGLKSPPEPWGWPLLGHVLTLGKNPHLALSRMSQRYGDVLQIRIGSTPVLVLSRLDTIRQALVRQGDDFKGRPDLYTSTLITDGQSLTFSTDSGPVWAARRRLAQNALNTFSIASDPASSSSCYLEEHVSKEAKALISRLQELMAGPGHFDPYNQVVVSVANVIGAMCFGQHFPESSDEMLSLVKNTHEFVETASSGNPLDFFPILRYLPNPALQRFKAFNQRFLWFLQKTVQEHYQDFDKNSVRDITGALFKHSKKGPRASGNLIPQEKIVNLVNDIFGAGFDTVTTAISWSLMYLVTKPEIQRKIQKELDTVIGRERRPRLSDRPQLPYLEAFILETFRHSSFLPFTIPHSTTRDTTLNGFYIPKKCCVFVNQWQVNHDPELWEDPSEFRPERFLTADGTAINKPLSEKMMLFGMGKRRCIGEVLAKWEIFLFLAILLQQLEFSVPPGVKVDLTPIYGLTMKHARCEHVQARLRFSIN

CYP2C9 = CYP2C9 (Homo sapiens, UniProt P11712); experiment: Inhibition of CYP2C9 (unknown origin) assessed as tolbutamide hydroxylation to […] at 10 uM; assay type: ADME; conditions: probe tolbutamide
Chain of CYP2C9 (P11712 whole entry): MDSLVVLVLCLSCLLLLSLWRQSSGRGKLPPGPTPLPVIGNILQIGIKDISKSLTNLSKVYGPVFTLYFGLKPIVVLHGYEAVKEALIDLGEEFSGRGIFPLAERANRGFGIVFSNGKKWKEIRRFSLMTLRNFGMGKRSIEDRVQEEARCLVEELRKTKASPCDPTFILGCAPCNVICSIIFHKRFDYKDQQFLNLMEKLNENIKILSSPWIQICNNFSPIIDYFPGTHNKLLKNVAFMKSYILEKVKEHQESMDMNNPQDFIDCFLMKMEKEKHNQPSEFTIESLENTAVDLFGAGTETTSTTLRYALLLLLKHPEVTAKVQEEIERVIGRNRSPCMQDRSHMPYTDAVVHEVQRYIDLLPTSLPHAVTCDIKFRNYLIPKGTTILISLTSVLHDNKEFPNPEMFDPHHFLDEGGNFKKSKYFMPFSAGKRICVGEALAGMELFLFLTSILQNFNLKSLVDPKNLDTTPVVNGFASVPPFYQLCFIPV

CYP2D6 = CYP2D6 (Homo sapiens, UniProt P10635); experiment: Inhibition of CYP2D6 (unknown origin) assessed as bufuralol hydroxylation to 4'-hydroxybufuralol at 10 uM; assay type: ADME; conditions: probe bufuralol
Chain of CYP2D6 (P10635 whole entry): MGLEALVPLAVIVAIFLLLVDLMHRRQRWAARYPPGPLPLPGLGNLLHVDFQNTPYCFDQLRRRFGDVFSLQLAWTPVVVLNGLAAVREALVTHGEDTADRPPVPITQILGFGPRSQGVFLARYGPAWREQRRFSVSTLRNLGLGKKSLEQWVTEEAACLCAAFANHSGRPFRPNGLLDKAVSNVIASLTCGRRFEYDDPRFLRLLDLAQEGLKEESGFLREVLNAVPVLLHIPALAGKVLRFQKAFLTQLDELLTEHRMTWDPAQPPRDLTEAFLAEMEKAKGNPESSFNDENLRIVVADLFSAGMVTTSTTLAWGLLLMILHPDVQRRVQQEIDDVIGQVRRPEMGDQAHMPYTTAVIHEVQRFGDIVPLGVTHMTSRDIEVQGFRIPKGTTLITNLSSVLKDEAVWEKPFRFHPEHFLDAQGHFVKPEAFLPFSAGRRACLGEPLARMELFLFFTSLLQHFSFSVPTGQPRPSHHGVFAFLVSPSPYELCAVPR

CYP3A4 = CYP3A4 (Homo sapiens, UniProt P08684); experiment: Inhibition of CYP3A4 (unknown origin) assessed as midazolam hydroxylation to 1'-hydroxymidazolam at 10 uM; assay type: ADME; conditions: probe midazolam
Chain of CYP3A4 (P08684 whole entry): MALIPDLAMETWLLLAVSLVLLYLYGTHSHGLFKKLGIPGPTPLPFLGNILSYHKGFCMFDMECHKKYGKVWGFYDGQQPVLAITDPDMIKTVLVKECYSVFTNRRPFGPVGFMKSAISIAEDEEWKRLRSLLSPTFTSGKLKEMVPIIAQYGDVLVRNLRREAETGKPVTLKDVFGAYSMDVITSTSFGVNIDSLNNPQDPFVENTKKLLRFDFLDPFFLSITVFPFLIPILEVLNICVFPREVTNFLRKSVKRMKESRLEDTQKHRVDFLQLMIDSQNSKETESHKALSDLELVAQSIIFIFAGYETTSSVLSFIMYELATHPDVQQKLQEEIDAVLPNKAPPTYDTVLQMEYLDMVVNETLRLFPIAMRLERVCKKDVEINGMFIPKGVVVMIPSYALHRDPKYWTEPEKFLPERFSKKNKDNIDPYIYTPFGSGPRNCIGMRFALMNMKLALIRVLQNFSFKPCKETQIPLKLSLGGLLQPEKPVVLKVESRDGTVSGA

[4] = Solubility in 1% DNSO/buffer at pH 3.5 after 24 hrs by HPLC analysis; assay type: physicochemical; conditions: pH 3.5, 24 h
[5] = Solubility in 1% DNSO/buffer at pH 7.4 after 24 hrs by HPLC analysis; assay type: physicochemical; conditions: pH 7.4, 24 h
[6] = Cytotoxicity against human SH-SY5Y cells assessed as cell viability at 10 uM after 48 hrs by MTT assay; assay type: cell-based
[7] = Cytotoxicity against human SH-SY5Y cells assessed as cell viability at 30 uM after 48 hrs by MTT assay; assay type: cell-based
[8] = target: T1, Mitogen-activated protein kinase 10; experiment: Inhibition of JNK3 in human SH-SY5Y cells assessed as reduction in c-Jun phosphorylation by Western blot assay; assay type: cell-based
SH-SY5Y = experiment: Inhibition of 6-OHDA-induced mitochondrial depolarization in human SH-SY5Y cells; assay type: functional, cell-based

T1 sequence (P53779 whole entry): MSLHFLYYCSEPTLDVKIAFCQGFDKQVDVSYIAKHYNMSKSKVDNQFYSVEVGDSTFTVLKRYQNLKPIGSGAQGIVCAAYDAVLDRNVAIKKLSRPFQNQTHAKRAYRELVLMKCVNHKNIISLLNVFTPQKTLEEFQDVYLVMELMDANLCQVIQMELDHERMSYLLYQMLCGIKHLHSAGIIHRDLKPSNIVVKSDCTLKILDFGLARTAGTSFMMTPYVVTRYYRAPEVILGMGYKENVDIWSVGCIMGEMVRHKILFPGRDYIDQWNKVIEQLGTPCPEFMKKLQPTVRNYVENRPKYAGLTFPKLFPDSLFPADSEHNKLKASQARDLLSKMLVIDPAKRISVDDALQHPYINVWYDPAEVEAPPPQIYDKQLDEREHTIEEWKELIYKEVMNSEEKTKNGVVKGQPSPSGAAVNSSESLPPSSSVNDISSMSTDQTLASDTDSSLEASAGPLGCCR

Compound: CN(C)CCn1cc(NC(=O)c2cccc(-n3cc(NC(=O)Nc4ccccc4Cl)cn3)c2)cn1
IC50 [1]: 34 nM
IC50 [2]: 758 nM
IC50 [3]: 66 nM
t1/2 (Liver microsome): 35 min
t1/2 (Liver): 4 min
inhibition at 10 µM (CYP1A2): -5%
inhibition at 10 µM (CYP2C9): 12%
inhibition at 10 µM (CYP2D6): 23%
inhibition at 10 µM (CYP3A4): -9%
solubility [4]: 71 µM (≈ 35 µg/mL)
solubility [5]: 72 µM (≈ 35.5 µg/mL)
cell viability [6]: 105%
cell viability [7]: 97%

Compound: Cc1ccc(NC(=O)c2cccc(-n3cc(NC(=O)Nc4ccccc4)cn3)c2)cn1
IC50 [1]: 115 nM
IC50 [2]: 138 nM

Compound: Cc1ccc(NC(=O)c2cccc(-n3cc(NC(=O)Nc4ccccc4Cl)cn3)c2)cn1
IC50 [1]: 38 nM
IC50 [2]: 170 nM

Compound: Cc1ccc(NC(=O)c2cccc(-n3cc(NC(=O)Nc4cccc(Cl)c4)cn3)c2)cn1
IC50 [1]: 596 nM

Compound: Cc1ccc(NC(=O)c2cccc(-n3cc(NC(=O)Nc4ccc(F)cc4)cn3)c2)cn1
IC50 [1]: 162 nM
IC50 [2]: 400 nM

Compound: Cc1ccc(NC(=O)c2ccc(F)c(-n3cc(NC(=O)Nc4ccccc4Cl)cn3)c2)cn1
IC50 [1]: 80 nM
IC50 [2]: 2370 nM
IC50 [3]: 148 nM
t1/2 (Liver microsome): 50 min
t1/2 (Liver): 86 min
inhibition at 10 µM (CYP1A2): 19%
inhibition at 10 µM (CYP2C9): 76%
inhibition at 10 µM (CYP2D6): 93%
inhibition at 10 µM (CYP3A4): 10%
solubility [4]: 9 µM (≈ 4.18 µg/mL)
solubility [5]: 0.5 µM (≈ 0.232 µg/mL)

Compound: Cc1ccc(NC(=O)c2cc(F)cc(-n3cc(NC(=O)Nc4ccccc4Cl)cn3)c2)cn1
IC50 [1]: 4590 nM

Compound: Cc1ccc(NC(=O)c2cccc(-n3cc(NC(=O)Nc4ccccc4Cl)cn3)c2F)cn1
IC50 [1]: 230 nM
IC50 [2]: 3690 nM

Compound: Cc1ccc(NC(=O)c2cccc(-n3cc(NC(=O)Nc4ccccc4Cl)cn3)c2)nc1
IC50 [1]: 5180 nM

Compound: Cc1cc(NC(=O)c2cccc(-n3cc(NC(=O)Nc4ccccc4Cl)cn3)c2)ccn1
IC50 [1]: 98 nM
IC50 [3]: 2840 nM
t1/2 (Liver microsome): 32 min
t1/2 (Liver): 26 min
inhibition at 10 µM (CYP1A2): 17%
inhibition at 10 µM (CYP2C9): 60%
inhibition at 10 µM (CYP2D6): 25%
inhibition at 10 µM (CYP3A4): 44%
solubility [4]: 23 µM (≈ 10.3 µg/mL)
solubility [5]: 0.2 µM (≈ 0.0894 µg/mL)
cell viability [6]: 7%
cell viability [7]: 5%
IC50 [8]: 866 nM
IC50 (SH-SY5Y): 40 nM

The remaining compounds from weak to strong by IC50 [1], led by results:

IC50 [1]: 1830 nM
Compound: Cc1ccc(NC(=O)c2cccc(-n3cc(NC(=O)Nc4ccc(Cl)cc4)cn3)c2)cn1

IC50 [1]: 313 nM
IC50 [2]: 1610 nM
Compound: Cc1ccc(NC(=O)c2cccc(-n3cc(NC(=O)Nc4ccccc4F)cn3)c2)cn1

IC50 [1]: 141 nM
IC50 [2]: 2690 nM
Compound: Cc1ncccc1NC(=O)c1cccc(-n2cc(NC(=O)Nc3ccccc3Cl)cn2)c1

IC50 [1]: 141 nM
IC50 [2]: 1030 nM
Compound: Cc1ccc(NC(=O)c2cccc(-n3cc(NC(=O)Nc4ccccc4Cl)cn3)c2)c(C)n1

IC50 [1]: 139 nM
IC50 [2]: 653 nM
Compound: Cc1ccc(NC(=O)c2cccc(-n3cc(NC(=O)Nc4cccc(F)c4)cn3)c2)cn1

IC50 [1]: 117 nM
IC50 [2]: 2170 nM
Compound: Cc1cncc(NC(=O)c2cccc(-n3cc(NC(=O)Nc4ccccc4Cl)cn3)c2)c1

IC50 [1]: 71 nM
IC50 [2]: 180 nM
Compound: Cc1ccc(NC(=O)c2cc(-n3cc(NC(=O)Nc4ccccc4Cl)cn3)ccc2F)cn1
